Reference: US11148998B2, “Dimethyl-nonatetraenyl-trimethyl-cyclohexyl compounds and uses thereof” (The Regents of the University of Michigan, priority 2017, dated 2021)

Columns and labels:
[1] = tested on: normal human skin in organ culture; experiment: Retinoid-induced skin thickening in human skin organ culture; format: cell-based; details: 1 μg/mL, 8 days organ culture
Method: Human skin biopsies were incubated for 8 days in organ culture. […] At the end of the incubation period, the tissue was fixed for histology and examined at the light microscopy level after staining with hematoxylin and eosin. […] These abnormalities are not seen in the ex. 1—treated skin section.
Replicate 2-mm punch biopsies (up to 12 per subject) are obtained from hip skin of volunteers 18-70 years of age. The participation of human subjects is approved by the University of Michigan Institutional Review Board and all subjects provide written informed consent prior to their inclusion in the study. The punch biopsies are incubated in wells of a 24 well dish (one tissue piece per 200-500 μL of culture medium). Culture medium consists of KBM. For organ culture, the culture medium is supplemented with calcium chloride to a final calcium concentration of 1.5 mM. One or two wells are typically left as control while the others are treated as desired. Fresh culture medium and treatments are provided at 2-day intervals. Organ culture-conditioned medium collected at day-2 is saved for cytokine assessment or for measure of other bioactive molecules as desired. At the end of the incubation period (typically, day-8), the tissue is fixed in 10% buffered formalin and used for histology. The organ culture protocol used here is virtually identical to that described in several past reports (see, e.g., Varani J, et al., J Clin Invest. 1994; 94:1747-1756; Varani J, et al., Am J Pathol. 1993 January; 142(1):189-98; Lateef H, et al., Am J Pathol. 2004; 165:167-174; Varani J, et al., Exp Mol Pathol. 2004; 77(3):176-83; Varani J, et al., Am J Pathol. 1993 June; 142(6):1813-22; Varani J, et al., Toxicol. Pathol. 35:693-701, 2007; Rittié L, et al., J Invest Dermatol, 126:732-739, 2006).

human dermal fibroblasts = experiment: Retinoid-induced fibroblast cytotoxicity; format: cell-based; details: KBM 1.5 mM calcium, 72 hours, up to 5 μg/mL
Method: Human dermal fibroblasts are isolated from skin biopsies as described previously and grown in monolayer culture using DMEM supplemented with 10% fetal bovine serum as culture medium (see, e.g., Varani J, et al., J Clin Invest. 1994; 94; Varani J, et al., J. Invest. Dermatol. 94:717-723, 1990). Growth is at 37° C. in a humidified atmosphere containing 5% CO2 and 95% air. For experimental studies, cells are plated at 5×10^4 cells per well in wells of a 24-well culture dish in the same culture medium. One day later, cells are washed and the DMEM culture medium is replaced with Keratinocyte Basal Medium (KBM).
This assay is similar to the fibroblast cytotoxicity assay except that the human dermal fibroblasts are plated in culture medium (KBM) supplemented with a concentration of calcium (1.5 mM) that supports survival on its own. The biologically active retinoids are included in the culture medium and the cells incubated for 72 hours. Under such conditions, there is little net increase in growth with added retinoid, and at high concentrations, cytotoxicity occurs (see, e.g., Varani, J., et al., J. Invest. Dermatol. 101:839-842).
That is, there was little decline in cell numbers compared to control with retinoid concentrations up to 5 μg/mL.

[2] = Rhino mouse topical treatment: spleen size; format: in vivo; details: 0.1% topical, 21 days
Text: Mouse skin is rather thinner than human skin, and topically applied drugs tend to get into the circulation more readily when applied to mice, especially the hairless mutants, than to humans.

[3] = tested on: human skin in organ culture; details: cited from earlier work
[4] = tested on: NB4 cells (PML cell line); experiment: NB4 cell differentiation (morphology, phase contrast); format: cell-based; details: 50 μg/mL, 48 hours
Method: FIGS. 8A & FIG. 8B: Morphological change with Compound 2. Control NB4 cells are shown after 48 hours incubation in culture medium in FIG. 8A.
Concentration-dependent and time-dependent growth inhibition studies were carried out in vitro. Cells were plated in wells of a 24-well dish at 5×10^4 cells per well in maintenance media (DMEM+2% fetal bovine serum. Each of the experimental retinoids were added at the desired concentrations and the cells incubated for 3 days. At the end of the incubation period, cells were counted using an electronic particle counter. Viability was determined by exclusion of trypan blue. To assess differentiation, cells were treated for three days with either the desired agent (or control) in culture medium. At the end of the incubation period, the cells were photographed under phase-contrast microscopy.
Inhibition could be seen at both 48 and 72 hours of incubation. […] The polarized, flattened morphology is evidence of differentiation. These studies, thus, indicate that the experimental retinoids have potential as anti-cancer agents.

Row | Compound | epidermal thickening (hyperplastic changes), histology [1] | toxicity in the upper epidermis, histology [1] | fibroblast cytotoxicity (decline in cell numbers compared to control) (human dermal fibroblasts) | spleen size (splenomegaly) [2] | effect on collagen-degrading enzyme MMP-1 (collagenase 1) ([3]; human skin organ culture model) | procollagen I production ([3]; human skin organ culture model) | up-regulation of the pro-inflammatory cytokines that underlie retinoid-induced skin irritation ([3]; past studies) | morphological change (evidence of differentiation) [4]
1 | CC1=C(/C=C/C(C)=C\C=C\C(C)=C\C(=O)N(C)CC(=O)C(C)(C)C)C(C)(C)CCC1 [Example 1, (2E,4E 6Z,8E)-N-(3,3-dimethyl-2-oxobutyl)-N,3,7-trimethyl-9-(2,6,6-trimethylcyclohex-1-en-1-yl)nona-2,4,6,8-tetraenamide] | hyperplastic changes (increased epidermal thickening) | not seen | – | – | – | – | – | –
2 | CC1=C(/C=C/C(C)=C/C=C/C(C)=C/C(=O)O)C(C)(C)CCC1 [ATRA, all-trans retinoic acid, reference compound] | hyperplastic changes (increased epidermal thickening) | evidence of toxicity in the upper epidermis (i.e., incomplete keratinization with loss of granular layer) | lack of fibroblast cytotoxicity at concentrations as high as 5 μg/mL | very marked splenomegaly | inhibited the major collagen-degrading enzyme (MMP-1, collagenase 1) | induced procollagen I production | as expected, did | –
3 | CC1=C(/C=C/C(C)=C\C=C\C(C)=C\C(=O)N(C)CC(=O)c2ccccc2)C(C)(C)CCC1 [Example 2, (2E,4E 6Z,8E)-N,3,7-trimethyl—N-(2-oxo-2-phenylethyl)-9-(2,6,6-trimethylcyclohex-1-en-1-yl)nona-2,4,6,8-tetraenamide] | – | – | – | – | – | – | – | polarized and flattened
